The values below come from PubChem BioAssay (NCI).

Where “and” joins values, the source holds several entries; their conditions need not be identical. Equal entries are not always repeated.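 Briefly, cells in 96-well plates were exposed to five compound concentrations for 48 h, and endpoints were estimated by linear interpolation. The concentration for 50% growth inhibition is given as GI50. TGI: concentration producing complete growth inhibition.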 Bounds are passed on as bounds.

Common to all, as to test: NCI tumour cell line growth inhibition, 48 h
The test system of experiment [1] is BT-549 breast.
Experiment [2] relates to DU-145 prostate.
The test system of experiment [3] is HCT-116 colon.
In experiment [4] the test system is MCF7 breast.
For experiment [5], the system named is NCI-H226 lung.
In experiment [6] the test system is NCI-H522 lung.
Experiment [7] has as its system OVCAR-3 ovarian.
Experiment [8] concerns OVCAR-4 ovarian.
The subject of experiment [9] is OVCAR-5 ovarian.
Experiment [10] relates to SN12C renal.

`COc1ccc(/C=C2/N=C(N/N=C\C(O)C(O)C(O)CO)NC2=O)cc1` (stereo not drawn): the TGI in experiment [1], in [2], in experiment [3], in [4], in experiment [5] and in experiment [6] was over 100 µM in each case. Also, the TGI in experiment [7] is > 100 µM and 67.8 µM; in [8], over 100 µM; in experiment [9] it was over 100 µM; in [10], over 100 µM. In addition, the GI50 in experiment [6] is > 100 µM and 34.2 µM; in experiment [7], > 100 µM and 24.3 µM; in [8] it was 40.9 µM and > 100 µM.

On to `c1ccc(-c2csc3c2-n2cccc2C3N2CCCC2)cc1` (stereo not drawn), for which the TGI in experiment [1] is 34.4 µM; in experiment [2] it was over 100 µM; in [3], over 100 µM; in experiment [4] it was over 100 µM; in experiment [5], over 100 µM; in experiment [6] it was over 100 µM. The TGI in [7], in experiment [8], in experiment [9] and in experiment [10] was over 100 µM each time.

Turning to `CCO/C(O)=C(/C(=N)N1CCOCC1)C(=O)Nc1cccc(C(F)(F)F)c1`, the TGI in experiment [1], in experiment [2], in experiment [3], in experiment [4], in experiment [5] and in [6] was over 100 µM throughout. The TGI in [7], in [8], in [9] and in experiment [10] was over 100 µM in each case.

Consider `OC1(c2ccccc2)CC2CCC(C1)N2CCCC(O)(c1ccccc1)c1ccccc1` (stereo not drawn), for which the TGI in experiment [1] was 26.3 µM; in experiment [2], 56.8 µM; in [3] it was 36.1 µM; in [4], 33.3 µM; in [5], 29 µM; in experiment [6], 27.9 µM. The TGI is 30 µM in [7], over 100 µM in [8], 44.4 µM in experiment [9] and 39.1 µM in experiment [10].

Regarding `Clc1ccc(Nc2ncco2)cc1Cl`, the TGI in experiment [1], in experiment [2], in experiment [3], in experiment [4], in [5] and in experiment [6] was over 10 µM each time. The TGI in [7], in experiment [8], in experiment [9] and in [10] was over 10 µM in each case.

Regarding `COc1cc(C2CC(C)(N3CCOCC3)Oc3cc4c(cc32)OCO4)cc(OC)c1OC` (stereo not drawn), the TGI in [1] was over 100 µM; in experiment [2], over 33.1 µM; in experiment [3], over 100 µM; in experiment [4] it was over 100 µM; in experiment [5], over 88.4 µM; in experiment [6] it was over 100 µM. In addition, the TGI in experiment [7] is over 100 µM; in [8] it was 8.65 µM; in experiment [9] it was over 100 µM; in experiment [10], over 100 µM.

`CC(=O)N1C(C(=O)NN2CCOCC2)CSC1c1ccccc1` (stereo not drawn): the TGI in experiment [1], in experiment [2], in experiment [3], in [4], in experiment [5] and in experiment [6] was over 100 µM in each case. Also, the TGI in experiment [7], in experiment [8], in experiment [9] and in experiment [10] was over 100 µM each time.

For `NC(Cc1ccc(O)cn1)C(=O)NC(C(=O)O)c1ccccc1` (stereo not drawn), the TGI in experiment [1], in experiment [2], in experiment [3], in experiment [4], in experiment [5] and in [6] was over 100 µM in each case. For the same compound, the TGI in [7], in experiment [8], in experiment [9] and in experiment [10] was over 100 µM each time.

In the case of `CCOC(=O)c1c(N2CCCC2)[nH]c(=O)c(C(c2c(O)c(C(=O)OCC)c(N3CCCC3)[nH]c2=O)C(C)C)c1O`, the TGI in experiment [1], in [2], in [3], in experiment [4], in experiment [5] and in [6] was over 100 µM each time. The TGI in experiment [7], in experiment [8], in experiment [9] and in [10] was over 100 µM each time.

In the case of `c1ccc(CN2CCC(=NN3CCCCC3)CC2)cc1`, the TGI in experiment [1], in experiment [2], in experiment [3], in experiment [4], in experiment [5] and in experiment [6] was over 100 µM throughout. Further, the TGI in experiment [7], in [8], in [9] and in experiment [10] was over 100 µM each time.

Take `Cc1cc(C)cc(Nc2nnc3n2S(=O)(=O)c2cc(C)c(Cl)cc2S3)c1`: the TGI in experiment [1] was 70.9 µM; in [2] it was 97 µM; in experiment [3] it was over 100 µM; in [4], 36 µM; in [5], 30.5 µM; in experiment [6], 22.6 µM. Also, the TGI was 17.5 µM in experiment [7], over 100 µM in experiment [8], over 100 µM in experiment [9] and 48.5 µM in experiment [10].

In the case of `CC12NC(=C(C#N)C#N)C(C#N)=C3NC(N)=C(C#N)C(=C31)Oc1ccccc12` (stereo not drawn), the TGI in experiment [1], in [2], in experiment [3], in [4], in experiment [5] and in [6] was over 100 µM in each case. The TGI is over 24.9 µM in experiment [7], over 100 µM in experiment [8], over 100 µM in [9] and over 100 µM in experiment [10].

In the case of `O=[N+]([O-])c1cc(Br)cc2cc(Cl)cnc12`, the TGI in experiment [1], in experiment [2], in experiment [3], in experiment [4], in [5] and in [6] was over 100 µM each time. Besides, the TGI in experiment [7], in [8], in experiment [9] and in experiment [10] was over 100 µM each time.

With `C=C1CC[C@@]2(C)[C@@H]([C@@H]1C)[C@H]1CC[C@@H]3[C@@]4(C)CC[C@H](O)C(C)(C)[C@@H]4CC[C@@]3(C)[C@]1(C)C[C@@H]2O`, the TGI in experiment [1] is 34.6 µM; in experiment [2], 17.5 µM; in experiment [3], over 23.9 µM; in experiment [4], 9.23 µM; in experiment [5] it was 40.1 µM; in [6] it was 4.52 µM. The TGI in experiment [7] is 16.1 µM; in experiment [8], 6.53 µM; in experiment [9] it was 17.7 µM; in experiment [10] it was over 100 µM.

As to `CN1C(=O)N(C)C2(CCN(CC(CC3OCCO3)c3ccc(F)cc3)CC2)C1=O` (stereo not drawn), the TGI in experiment [1], in experiment [2], in [3], in experiment [4], in experiment [5] and in [6] was over 100 µM in each case. Further, the TGI in [7], in experiment [8], in experiment [9] and in [10] was over 100 µM each time.

Turning to `O=[N+]([O-])c1cc(C2(N3CCCCC3)CCCCC2)sc1Br`, the TGI was found to be 24.3 µM in [1]; 10.2 µM in experiment [2]; 35.5 µM in experiment [3]; 8.6 µM in experiment [4]; 28.1 µM in experiment [5]; 6.78 µM in experiment [6]. Also, the TGI was 7.4 µM in [7], 27.1 µM in experiment [8], 38.2 µM in experiment [9] and 21.8 µM in experiment [10].

Turning to `c1ccc(-c2cnc(SC(c3ccccc3)c3ccccc3)[nH]2)cc1`, the TGI in experiment [1] was over 100 µM; in experiment [2], over 100 µM; in experiment [3] it was over 100 µM; in experiment [4], 74.7 µM; in [5], 67.3 µM; in experiment [6], 54.6 µM. For the same compound, the TGI was over 100 µM in experiment [7], over 100 µM in experiment [8], over 100 µM in experiment [9] and 65.4 µM in [10].

In the case of `CN(C(=O)[C@H](NC(=O)OCc1ccccc1)c1ccccc1)C1CCCCC1N1CCCC1` (stereo partly drawn), the TGI in [1] was over 100 µM; in [2] it was over 100 µM; in [3] it was over 100 µM; in experiment [4], over 100 µM; in experiment [5], 78 µM; in experiment [6], over 100 µM. The TGI in experiment [7], in [8], in [9] and in [10] was over 100 µM throughout.

For `COc1ccc2[nH]c3cc4c(=O)c5cc(OC)ccc5[nH]c4cc3c(=O)c2c1`, the TGI in experiment [1], in [2], in experiment [3], in experiment [4], in experiment [5] and in experiment [6] was over 100 µM throughout. Besides, the TGI in [7], in experiment [8], in [9] and in [10] was over 100 µM each time.

As for `C=C1C(=O)OC2C1CCC(=C)C1CC(O)C(=C)C12` (stereo not drawn), the TGI in experiment [1] is 30.4 µM; in experiment [2], 29 µM; in [3], 26.4 µM; in experiment [4] it was 25.5 µM; in [5], over 63.1 µM; in experiment [6], 6.39 µM. Also, the TGI was 27.9 µM in experiment [7], 33.7 µM in [8], 26.3 µM in experiment [9] and 31.9 µM in experiment [10].

For the compound `CCCNC1=C2C[C@@H](C)C[C@@H](OC)[C@@H](OC(=O)CCCN)[C@H](C)/C=C(\C)[C@@H](OC(N)=O)[C@H](OC)/C=C\C=C(/C)C(=O)NC(=CC1=O)C2=O`, the TGI in experiment [1] was found to be 29.4 µM; in experiment [2], 26.3 µM; in experiment [3] it was 28.3 µM; in experiment [4], 31.4 µM; in [5], 39.8 µM; in [6], 19.1 µM. Further, the TGI in [7] is 24 µM; in experiment [8] it was 39.4 µM; in [9] it was 30.5 µM; in experiment [10], over 48.8 µM.

`C[C@@H]1C[C@H]2OC(=O)[C@@]3(C)CCC[C@@](C)([C@@H]23)[C@@]1(O)CCc1ccoc1`: the TGI in experiment [1], in experiment [2], in experiment [3], in experiment [4], in experiment [5] and in experiment [6] was over 100 µM in each case. Further, the TGI in experiment [7], in experiment [8], in experiment [9] and in experiment [10] was over 100 µM throughout.

On to `CCOC(=O)Oc1cc2ccsc2c2c1c1ccccc1n2C(=O)OCC`, for which the TGI in experiment [1], in experiment [2], in experiment [3], in [4], in experiment [5] and in [6] was over 100 µM in each case. The TGI in experiment [7], in [8], in [9] and in experiment [10] was over 100 µM in each case.

For the compound `Nc1nc(Cl)cc(NCC2(CO)CCCCC2)n1`, the TGI in [1], in experiment [2], in experiment [3], in [4], in experiment [5] and in [6] was over 100 µM throughout. The TGI in experiment [7], in experiment [8], in [9] and in [10] was over 100 µM throughout.

In the case of `O=c1oc2ccc([N+](=O)[O-])cc2nc1/C=C(\O)c1ccccc1`, the TGI in experiment [1], in experiment [2], in [3], in [4], in [5] and in experiment [6] was over 100 µM throughout. The TGI in [7], in experiment [8], in [9] and in experiment [10] was over 100 µM in each case.

Consider `COc1ccc2c(c1)CC[C@@H]1[C@@H]2CC[C@]2(C)/C(=N/OCCN3CCCC3)CC[C@@H]12`, for which the TGI came out at 22.4 µM in experiment [1]; 15.5 µM in experiment [2]; 3.43 µM in experiment [3]; 8.92 µM in experiment [4]; 5.26 µM in experiment [5]; 11.5 µM in experiment [6]. In addition, the TGI in [7] was 16.2 µM; in experiment [8], 24.3 µM; in experiment [9], 10.1 µM; in [10], 15.9 µM.
